According to patent US6777425B2, “Isoquinoline compounds having antiinfective activity” (Genesoft Pharmaceuticals, Inc., priority 2001, dated 2004):

Key:
E. faecium ATCC 51559 = test: NCCLS broth microdilution MIC, E. faecium (VRE); format: cell-based, Enterococcus faecium; settings: organism D = E. faecium ATCC 51559 (VRE)
From the text: (§1) Compounds according to this invention were screened for their in vitro activities against selected species of bacteria and fungi. […]

[1] = test system: S. epidermidis ATCC 12228; test: NCCLS broth microdilution MIC, S. epidermidis; format: cell-based, Staphylococcus epidermidis; settings: organism G = S. epidermidis ATCC 12228
From the text: as §1

S. aureus ATCC 13709 = test: NCCLS broth microdilution MIC, S. aureus (MSSA); format: cell-based, Staphylococcus aureus; settings: organism E = S. aureus ATCC 13709 (MSSA)
From the text: as §1

S. aureus ATCC 27660 = test: NCCLS broth microdilution MIC, S. aureus (MRSA); format: cell-based, Staphylococcus aureus; settings: organism F = S. aureus ATCC 27660 (MRSA)
From the text: as §1

S. pneumoniae ATCC 51422 = test: NCCLS broth microdilution MIC, S. pneumoniae (PRSP); format: cell-based, Streptococcus pneumoniae; settings: organism I = S. pneumoniae ATCC 51422 (PRSP)
From the text: as §1

E. faecalis ATCC 29212 = test: NCCLS broth microdilution MIC, E. faecalis; format: cell-based; settings: organism C = E. faecalis ATCC 29212
From the text: as §1

S. pneumoniae ATCC 49619 = test: NCCLS broth microdilution MIC, S. pneumoniae ATCC 49619; format: cell-based, Streptococcus pneumoniae; settings: organism H = S. pneumoniae ATCC 49619
From the text: as §1

C. albicans ATCC 38247 = test: Antifungal MIC, C. albicans; format: cell-based, Candida albicans; settings: organism B = C. albicans ATCC 38247
From the text: as §1

B. cereus ATCC 11778 = test: NCCLS broth microdilution MIC, B. cereus; format: cell-based, Bacillus cereus; settings: organism A = B. cereus ATCC 11778
From the text: as §1

[2] = Staphylococcus aureus, read-out: Minimum Inhibitory Concentration (MIC)

SMILES	MIC (E. faecium ATCC 51559; Enterococcus faecium, read-out: Minimum Inhibitory Concentration (MIC)) [µg/mL]	MIC ([1]; Staphylococcus epidermidis, ATCC12228, read-out: Minimum Inhibitory Concentration (MIC)) [µg/mL]	MIC (S. aureus ATCC 13709; [2]) [µg/mL]	MIC (S. aureus ATCC 27660; [2]) [µg/mL]	MIC (S. pneumoniae ATCC 51422; Streptococcus pneumoniae, read-out: Minimum Inhibitory Concentration (MIC)) [µg/mL]	MIC (E. faecalis ATCC 29212; Enterococcus faecalis, ATCC29212, read-out: Minimum Inhibitory Concentration (MIC)) [µg/mL]	MIC (S. pneumoniae ATCC 49619; Streptococcus pneumoniae, ATCC49619, read-out: Minimum Inhibitory Concentration (MIC)) [µg/mL]	MIC (C. albicans ATCC 38247; Candida albicans, ATCC38247, read-out: Minimum Inhibitory Concentration (MIC)) [µg/mL]	MIC (B. cereus ATCC 11778; Bacillus cereus, ATCC11778, read-out: Minimum Inhibitory Concentration (MIC)) [µg/mL]	Minimum Inhibitory Concentration (MIC) (E. faecium ATCC 51559)	Minimum Inhibitory Concentration (MIC) [1]	Minimum Inhibitory Concentration (MIC) (S. aureus ATCC 13709)	Minimum Inhibitory Concentration (MIC) (S. aureus ATCC 27660)	Minimum Inhibitory Concentration (MIC) (S. pneumoniae ATCC 51422)	Minimum Inhibitory Concentration (MIC) (E. faecalis ATCC 29212)	Minimum Inhibitory Concentration (MIC) (S. pneumoniae ATCC 49619)	Minimum Inhibitory Concentration (MIC) (C. albicans ATCC 38247)	Minimum Inhibitory Concentration (MIC) (B. cereus ATCC 11778)
Cn1cc(NC(=O)c2ccc(NC(=O)c3cc(NC(=O)c4cc5ccccc5cn4)cn3C)cc2)cc1C(=O)NCCN1CCOCC1 [Ic-1]	< 4	< 4	< 4	< 4	< 4	< 4	< 4	> 32	< 4									
Cn1cc(NC(=O)c2cc(NC(=O)c3cc(NC(=O)c4cc5ccccc5cn4)cn3C)c[nH]2)cc1C(=O)NCCN1CCC(F)(F)CC1 [Ib-88]										+++ (+++ = MIC ≦ 4)	+++ (+++ = MIC ≦ 4)	+++ (+++ = MIC ≦ 4)	+++ (+++ = MIC ≦ 4)	+++ (+++ = MIC ≦ 4)	+++ (+++ = MIC ≦ 4)	+++ (+++ = MIC ≦ 4)	>32 µg/mL	+++ (+++ = MIC ≦ 4)
Cn1cc(NC(=O)c2cc(NC(=O)c3cc(NC(=O)c4cc5ccccc5cn4)cn3C)c[nH]2)cc1C(=O)NCCN1CCSCC1 [Ib-87]										+++ (+++ = MIC ≦ 4)	+++ (+++ = MIC ≦ 4)	+++ (+++ = MIC ≦ 4)	+++ (+++ = MIC ≦ 4)	+++ (+++ = MIC ≦ 4)	+++ (+++ = MIC ≦ 4)	+++ (+++ = MIC ≦ 4)	>32 µg/mL	+++ (+++ = MIC ≦ 4)
Cn1cc(NC(=O)c2cc(NC(=O)c3cc(NC(=O)c4cc5ccccc5cn4)c[nH]3)cn2C)cc1C(=O)NCCN1CCC(F)(F)CC1 [Ib-78]										+++ (+++ = MIC ≦ 4)	+++ (+++ = MIC ≦ 4)	+++ (+++ = MIC ≦ 4)	+++ (+++ = MIC ≦ 4)	+++ (+++ = MIC ≦ 4)	+++ (+++ = MIC ≦ 4)	+++ (+++ = MIC ≦ 4)	>32 µg/mL	+++ (+++ = MIC ≦ 4)
COCCOCCOCCn1cc(NC(=O)c2cc(NC(=O)c3cc4ccccc4cn3)cn2C)cc1C(=O)Nc1cc(C(=O)NCCN2CCOCC2)n(C)c1 [Ib-83]										+++ (+++ = MIC ≦ 4)	+++ (+++ = MIC ≦ 4)	+++ (+++ = MIC ≦ 4)	+++ (+++ = MIC ≦ 4)	+++ (+++ = MIC ≦ 4)	+++ (+++ = MIC ≦ 4)	+++ (+++ = MIC ≦ 4)	>32 µg/mL	+++ (+++ = MIC ≦ 4)
Cn1cc(NC(=O)c2cc3ccccc3cn2)cc1C(=O)Nc1cc(C(=O)Nc2cc(C(=O)NCCN3CCOCC3)ns2)n(C)c1 [Ib-52]										+++ (+++ = MIC ≦ 4)	+++ (+++ = MIC ≦ 4)	+++ (+++ = MIC ≦ 4)	+++ (+++ = MIC ≦ 4)	+++ (+++ = MIC ≦ 4)	+++ (+++ = MIC ≦ 4)	+++ (+++ = MIC ≦ 4)	>32 µg/mL	+++ (+++ = MIC ≦ 4)
Cn1cc(NC(=O)c2cc(NC(=O)c3cc(NC(=O)c4cc5ccccc5cn4)cn3C)c[nH]2)cc1C(=O)NCCN1CCCC1 [Ib-84]										+++ (+++ = MIC ≦ 4)	+++ (+++ = MIC ≦ 4)	+++ (+++ = MIC ≦ 4)	+++ (+++ = MIC ≦ 4)	+++ (+++ = MIC ≦ 4)	+++ (+++ = MIC ≦ 4)	+++ (+++ = MIC ≦ 4)	+ (+ = 12 ≦ MIC ≦ 32)	+++ (+++ = MIC ≦ 4)
Cn1cc(NC(=O)c2cc(NC(=O)c3cc(NC(=O)c4cc5ccccc5cn4)cs3)cn2C)cc1C(=O)NCCN1CCOCC1 [Ib-51]										++ (++ = 4 < MIC < 12)	++ (++ = 4 < MIC < 12)	+++ (+++ = MIC ≦ 4)	+++ (+++ = MIC ≦ 4)	+ (+ = 12 ≦ MIC ≦ 32)	+++ (+++ = MIC ≦ 4)	+++ (+++ = MIC ≦ 4)	++ (++ = 4 < MIC < 12)	+++ (+++ = MIC ≦ 4)
Cn1cc(NC(=O)c2cc(NC(=O)c3cc(NC(=O)c4cc5ccccc5cn4)cn3C)c[nH]2)cc1C(=O)NCCN1CCC(F)CC1 [Ib-85]										+++ (+++ = MIC ≦ 4)	+++ (+++ = MIC ≦ 4)	+++ (+++ = MIC ≦ 4)	+++ (+++ = MIC ≦ 4)	+++ (+++ = MIC ≦ 4)	+++ (+++ = MIC ≦ 4)	+++ (+++ = MIC ≦ 4)	+ (+ = 12 ≦ MIC ≦ 32)	+++ (+++ = MIC ≦ 4)
Cn1cc(NC(=O)c2cc(NC(=O)c3cc(NC(=O)c4cc5ccccc5cn4)c[nH]3)cn2C)cc1C(=O)NCCN1CCOCC1 [Ib-50]										+++ (+++ = MIC ≦ 4)	+++ (+++ = MIC ≦ 4)	+++ (+++ = MIC ≦ 4)	+++ (+++ = MIC ≦ 4)	+++ (+++ = MIC ≦ 4)	+++ (+++ = MIC ≦ 4)	+++ (+++ = MIC ≦ 4)	>32 µg/mL	+++ (+++ = MIC ≦ 4)

Second part, the compound after the results:

MIC (E. faecium ATCC 51559; Enterococcus faecium, read-out: Minimum Inhibitory Concentration (MIC)) [µg/mL]	MIC ([1]; Staphylococcus epidermidis, ATCC12228, read-out: Minimum Inhibitory Concentration (MIC)) [µg/mL]	MIC (S. aureus ATCC 13709; [2]) [µg/mL]	MIC (S. aureus ATCC 27660; [2]) [µg/mL]	MIC (S. pneumoniae ATCC 51422; Streptococcus pneumoniae, read-out: Minimum Inhibitory Concentration (MIC)) [µg/mL]	MIC (E. faecalis ATCC 29212; Enterococcus faecalis, ATCC29212, read-out: Minimum Inhibitory Concentration (MIC)) [µg/mL]	MIC (S. pneumoniae ATCC 49619; Streptococcus pneumoniae, ATCC49619, read-out: Minimum Inhibitory Concentration (MIC)) [µg/mL]	MIC (C. albicans ATCC 38247; Candida albicans, ATCC38247, read-out: Minimum Inhibitory Concentration (MIC)) [µg/mL]	MIC (B. cereus ATCC 11778; Bacillus cereus, ATCC11778, read-out: Minimum Inhibitory Concentration (MIC)) [µg/mL]	Minimum Inhibitory Concentration (MIC) (E. faecium ATCC 51559)	Minimum Inhibitory Concentration (MIC) [1]	Minimum Inhibitory Concentration (MIC) (S. aureus ATCC 13709)	Minimum Inhibitory Concentration (MIC) (S. aureus ATCC 27660)	Minimum Inhibitory Concentration (MIC) (S. pneumoniae ATCC 51422)	Minimum Inhibitory Concentration (MIC) (E. faecalis ATCC 29212)	Minimum Inhibitory Concentration (MIC) (S. pneumoniae ATCC 49619)	Minimum Inhibitory Concentration (MIC) (C. albicans ATCC 38247)	Minimum Inhibitory Concentration (MIC) (B. cereus ATCC 11778)	SMILES
									+++ (+++ = MIC ≦ 4)	+++ (+++ = MIC ≦ 4)	+++ (+++ = MIC ≦ 4)	+++ (+++ = MIC ≦ 4)	+++ (+++ = MIC ≦ 4)	+++ (+++ = MIC ≦ 4)	+++ (+++ = MIC ≦ 4)	>32 µg/mL	+++ (+++ = MIC ≦ 4)	Cn1cc(NC(=O)c2ccc(NC(=O)c3cc(NC(=O)c4cc5ccccc5cn4)cn3C)cc2)cc1C(=O)NCCN1CCC(F)(F)CC1 [Ic-4]
									+++ (+++ = MIC ≦ 4)	+++ (+++ = MIC ≦ 4)	+++ (+++ = MIC ≦ 4)	+++ (+++ = MIC ≦ 4)	+++ (+++ = MIC ≦ 4)	+++ (+++ = MIC ≦ 4)	+++ (+++ = MIC ≦ 4)	>32 µg/mL	>32 µg/mL	Cn1cc(NC(=O)c2ccc(NC(=O)c3cc(NC(=O)c4cc5ccccc5cn4)cn3C)cc2)cc1C(=O)NCCc1ccccn1 [Ic-12]
									+++ (+++ = MIC ≦ 4)	+++ (+++ = MIC ≦ 4)	+++ (+++ = MIC ≦ 4)	+++ (+++ = MIC ≦ 4)	+++ (+++ = MIC ≦ 4)	+++ (+++ = MIC ≦ 4)	+++ (+++ = MIC ≦ 4)	>32 µg/mL	+++ (+++ = MIC ≦ 4)	Cn1cc(NC(=O)c2ccc(NC(=O)c3cc(NC(=O)c4cc5ccccc5cn4)cn3C)cc2)cc1C(=O)NCCN1CCC(F)CC1 [Ic-3]
									+++ (+++ = MIC ≦ 4)	+++ (+++ = MIC ≦ 4)	+++ (+++ = MIC ≦ 4)	+++ (+++ = MIC ≦ 4)	+++ (+++ = MIC ≦ 4)	+++ (+++ = MIC ≦ 4)	+++ (+++ = MIC ≦ 4)	>32 µg/mL	+++ (+++ = MIC ≦ 4)	Cn1cc(NC(=O)c2ccc(NC(=O)c3cc(NC(=O)c4cc5ccccc5cn4)cn3C)cc2)cc1C(=O)NCCN1CCCCC1 [Ic-13]
